Where two headings read alike, the source gives them in different places.
Experiments:
11β-hsd-1 enzyme [1] = molecular target: T1, 11β-hsd-1 enzyme (Homo sapiens, UniProt P28845); test: biochemical; conditions: for inhibition at 0.1 µM: read-out: % Inh @ 0.1 μM; for inhibition: read-out: % Inh @ 0.1 mM
Description: Percentage of inhibition was determined in a 100 mM Triethanolamine buffer, pH 8.0, 200 mM NaCl, 0.02% n-dodecyl β-D-maltoside and 5 mM β-ME. A typical reaction was carried on a Corning® u-bottom 96-well plate and is described as follows: 11β-hsd-1 enzyme (5 nM, final concentration) was pre-incubated in the presence of the inhibitor and NADPH (500 μM, final concentration) for at least 30 minutes
in the assay buffer. When pre-incubation was completed, the reaction was initiated by adding the regenerating system (2 mM Glucose-6-Phosphate, 1U/mL Glucose-6-Phosphate dehydrogenase, and 6 mM MgCl2, all the concentration reported are final in the assay buffer), and 3H-cortisone (200 nM, final concentration). After 60 minutes, 60 μL of the assay mixture was transferred to a second 96-well plate and mixed with an equal volume of dimethylsulfoxide to stop the reaction. A 15 μL aliquot from the reaction mixture was loaded into a C-18 column (Polaris C18-A, 50×4.6 mm, 5 μ, 180 Angstrom from Varian) connected to an automated High-throughput Liquid Chromatography instrument developed by Cohesive Technologies Inc of Franklin, Mass., with a […] model 3 Radio-HPLC detector from IN/US of Tampa, Fla. The substrate and product peaks were separated by using an isocratic mixture of 43:57 methanol to water (v/v) at a flow rate of 1.0 mL/min.
Percent Inhibition was calculated based on the following equation: (1-(3H-Cortisol peak area in the […] of inhibitor)×100).

11β-hsd-1 enzyme [2] = molecular target: T1, 11β-hsd-1 enzyme; test: biochemical
Description: The 11β-hsd-1 assay was performed in a 100 mM Triethanolamine buffer pH 8.0, containing 200 mM NaCl, 0.02% n-dodecyl β-D-maltoside, 5% glycerol, 5 mM β-mercaptoethanol. A typical reaction for the determination of Kiapp values was carried at R.T. in a Corning® u-bottom 96-well plate and is described as follows: 11β-hsd-1 enzyme (5 nM, final concentration) was pre-incubated in the presence of the inhibitor and NADPH (500 μM, final concentration) for at least 30 minutes in the assay buffer. When pre-incubation was completed, the reaction was initiated by adding the regenerating system (2 mM Glucose-6-Phosphate, 1U/mL Glucose-6-Phosphate dehydrogenase, and 6 mM MgCl2, all the concentration reported are final in the assay buffer), and 3H-cortisone (200 nM, final concentration). After 60 minutes, 60 μL of the assay mixture was transferred to a second 96-well plate and mixed with an equal volume of dimethylsulfoxide to stop the reaction. A 15 μL aliquot from the reaction mixture was loaded into a C-18 column (Polaris C18-A, 50×4.6 mm, 5 μ, 180 Angstrom from Varian) connected to an automated High-throughput Liquid Chromatography instrument developed by Cohesive Technologies Inc, of Franklin, Mass. USA, with a β-RAM model 3 Radio-HPLC detector from IN/US, of Tampa, Fla. USA. The substrate and product peaks were separated by using an isocratic mixture of 43:57 methanol to water (v/v) at a flow rate of 1.0 mL/min.
The initial reaction velocities were measured by stopping the reaction at 60 min and by measuring the area of product formation in the absence and the presence of various concentrations of inhibitors. The Kiapp values were determined using the equation for tight-binding inhibitor developed by Morrison, J. F. (Morrison J. F. Biochim BiophysActa. 1969; 185: 269-86).
The radiolabeled [1,2-3H]-cortisone is commercially available from American Radiolabeled Chemicals Inc of St. Louis, Mo. USA. NADPH, Glucose-6-Phosphate, and Glucose-6-Phosphate dehydrogenase were purchased from Sigma®.
(Morrison J. F. Biochim Biophys Acta. 1969; 185: 269-86).

T1 sequence (P28845 whole entry, species assumed): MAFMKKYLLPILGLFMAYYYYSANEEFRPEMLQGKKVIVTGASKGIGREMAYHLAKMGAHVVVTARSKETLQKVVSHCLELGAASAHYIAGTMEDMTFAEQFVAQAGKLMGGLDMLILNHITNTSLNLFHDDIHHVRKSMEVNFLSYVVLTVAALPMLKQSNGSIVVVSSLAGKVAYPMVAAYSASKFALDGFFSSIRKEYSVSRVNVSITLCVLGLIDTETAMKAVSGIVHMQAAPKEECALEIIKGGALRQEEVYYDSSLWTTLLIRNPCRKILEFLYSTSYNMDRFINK

Row | SMILES | inhibition at 0.1 µM (11β-hsd-1 enzyme [1]) [%] | Ki (11β-hsd-1 enzyme [2]) [nM] | inhibition at 0.1 µM (11β-hsd-1 enzyme [1]; Table 1, inhibitor 0.1 μM) [%] | inhibition (11β-hsd-1 enzyme [1]) [%]
1 | O=S(=O)(Nc1cccc(CCO)n1)N1CCc2ccccc2CC1 [Example 16, N-[6-(2-hydroxyethyl)pyridin-2-yl]-1,2,4,5-tetrahydro-3H-3-benzazepine-3-sulfonamide] | 100 | 2.4 | – | –
2 | CCN(CC)C(=O)Cc1cccc(NS(=O)(=O)N2CCc3ccccc3CC2)n1 [Example 17, N,N-diethyl-2-{6-[(1,2,4,5-tetrahydro-3H-3-benzazepin-3-ylsulfonyl)amino]pyridin-2-yl}acetamide] | 100 | 5.7 | – | –
3 | Cc1cc(N)nc(NS(=O)(=O)N2CCN(c3ccc(C#N)cn3)CC2)c1 [Example 20, N-(6-amino-4-methylpyridin-2-yl)-4-(5-cyanopyridin-2-yl)piperazine-1-sulfonamide] | 100 | 2.5 | – | –
4 | Cc1cccc(NS(=O)(=O)N2CCCC(c3ccc(F)cc3)C2)n1 (centres unmarked) [Example 22] | 90 | 22 | – | –
5 | Cc1cccc(NS(=O)(=O)N2CCN(c3ccc(C#N)cn3)[C@H](C)C2)n1 [Example 23, (3R)-4-(5-cyanopyridin-2-yl)-3-methyl-N-(6-methylpyridin-2-yl)piperazine-1-sulfonamide] | 100 | 19.8 | – | –
6 | Cc1cccc(NS(=O)(=O)N2CC=C(c3ccc(C#N)cc3)CC2)n1 [Example 26, 4-(4-cyanophenyl)-N-(6-methylpyridin-2-yl)-3,6-dihydro-pyridine-1(2H)-sulfonamide] | 100 | 1.6 | – | –
7 | N#Cc1ccc(N2CCN(S(=O)(=O)Nc3cccc(CO)n3)CC2)nc1 [Example 29, 4-(5-cyanopyridin-2-yl)-N-[6-(hydroxymethyl)pyridin-2-yl]piperazine-1-sulfonamide] | – | 13 | 95 | –
8 | Cc1cccc(NS(=O)(=O)N2CCC(c3ccc(C#N)cn3)CC2)n1 [Example 33, 4-(5-cyanopyridin-2-yl)-N-(6-methylpyridin-2-yl)piperidine-1-sulfonamide] | 100 | 50 | – | –
9 | CC(C)c1cccc(NS(=O)(=O)N2CCC(c3ccc(C#N)cn3)CC2)n1 [Example 34] | 100 | 26 | – | –
10 | O=S(=O)(Nc1ccc2ncccc2n1)N1CCN(c2ccc(C(F)(F)F)cn2)CC1 [Example 35, N-1,5-naphthyridin-2-yl-4-[5-(trifluoromethyl)pyridin-2-yl]piperazine-1-sulfonamide] | 100 | 10 | – | –
11 | Cc1cc(Cl)cnc1N1CCN(S(=O)(=O)Nc2ccc3ncccc3n2)CC1 [Example 37, 4-(5-chloro-3-methylpyridin-2-yl)-N-1,5-naphthyridin-2-ylpiperazine-1-sulfonamide] | 80 | 100 | – | –
12 | N#Cc1ccc(C2CCN(S(=O)(=O)Nc3ccc4ccccc4n3)CC2)nc1 [Example 38] | 100 | 31 | – | –
13 | CCc1cccc(NS(=O)(=O)N2CCCN(c3ccc(C(F)(F)F)cn3)CC2)n1 [Example 43] | 93 | 12 | – | –
14 | Cc1cccc(NS(=O)(=O)N2CCCN(c3ccc(C#N)cn3)CC2)n1 [Example 44] | 72 | 34 | – | –
15 | N#Cc1ccc(N2CCCN(S(=O)(=O)Nc3ccc4ccccc4n3)CC2)nc1 [Example 45] | 73 | 53 | – | –
16 | CCc1cccc(NS(=O)(=O)N2CCC(c3ccc(F)cc3)CC2)n1 [Example 68] | 96.6 | 5.4 | – | –
17 | CCc1cccc(NS(=O)(=O)N2CCC(CCc3ccccn3)CC2)n1 [Example 80, N-(6-ethylpyridin-2-yl)-4-(2-pyridin-2-ylethyl)piperidine-1-sulfonamide] | – | 5.6 | – | 93.8
18 | CCc1cccc(NS(=O)(=O)N2CCC(CCc3ccnc(NCC4CC4)n3)CC2)n1 [Example 82, 4-(2-{2-[(cyclopropylmethyl)-amino]pyrimidin-4-yl}ethyl)-N-(6-ethylpyridin-2-yl)piperidine-1-sulfonamide] | – | 11 | – | 100
19 | Cc1cccc(NS(=O)(=O)N2CCOC(COc3cc(F)cc(F)c3)C2)n1 (centres unmarked) [Example 83, 2-[(35-difluorophenoxy)meth-yl]-N-(6-methylpyridin-2-yl)morpholine-4-sulfonamide] | – | 110 | – | 71.2

Continued, values first:

Row | inhibition at 0.1 µM (11β-hsd-1 enzyme [1]) [%] | Ki (11β-hsd-1 enzyme [2]) [nM] | inhibition at 0.1 µM (11β-hsd-1 enzyme [1]; Table 1, inhibitor 0.1 μM) [%] | inhibition (11β-hsd-1 enzyme [1]) [%] | SMILES
20 | – | 13 | 78.2 | – | CCc1cccc(NS(=O)(=O)N2CCc3ccc(S(C)(=O)=O)cc3CC2)n1 [Example 18]
21 | – | 63.5 | 50 | – | Cc1cccc(NS(=O)(=O)N2CCC(F)(c3ccc(C#N)cc3)CC2)n1 [Example 25, 4-(4-cyanophenyl)-4-fluoro-N-(6-methylpyridin-2-yl)piper-idine-1-sulfonamide]
22 | 100 | 0.66 | – | – | Cc1cc(C)nc(NS(=O)(=O)N2CCN(c3ccc(C#N)cn3)[C@H](C)C2)c1 [Example 28]
23 | 100 | > 1 | – | – | C[C@@H]1CN(S(=O)(=O)Nc2cccc(CO)n2)CCN1c1ccc(C#N)cn1 [Example 30]
24 | 100 | 11 | – | – | Cc1cc(N)nc(NS(=O)(=O)N2CCN(c3ncc(F)cn3)CC2)c1 [Example 31, N-(6-amino-4-methylpyridin-2-yl)-4-(5-fluoropyrimidin-2-yl)piperazine-1-sulfonamide]
25 | 97 | 2.4 | – | – | CC(C)c1cccc(NS(=O)(=O)N2CCN(c3ccc(C#N)cn3)CC2)n1 [Example 32, 4-(5-cyanopyridin-2-yl)-N-(6-isopropylpyridin-2-yl)piper-azine-1-sulfonamide]
26 | 91 | 16 | – | – | N#Cc1ccc(C2CCN(S(=O)(=O)Nc3cccc(N)n3)CC2)nc1 [Example 39]
27 | 89 | 17 | – | – | CCc1cccc(NS(=O)(=O)N2CCCN(c3ccc(C#N)cn3)CC2)n1 [Example 42]
28 | – | 56 | 85 | – | Cc1ccc(C)n1-c1cccc(NS(=O)(=O)N2CCC(c3ccc(F)cc3)CC2)n1 [Example 57, N-[6-(2,5-dimethyl-1H-pyrrol-1-yl)pyridin-2-yl]-4-(4-fluorophenyl)piperidine-1-sulfonamide]
29 | – | 23 | – | 92.7 | CCc1cccc(NS(=O)(=O)N2CCCC(c3ccnc(N4CCOCC4)n3)C2)n1 (centres unmarked) [Example 71, N-(6-ethylpyridin-2-yl)-3-(2-morpholin-4-ylpyrimidin-4-yl)pipendine-1-sulfonamide]
30 | – | 9.6 | – | 88.4 | CCc1cccc(NS(=O)(=O)N2CCC(c3ccc(C(=O)NC4CCCC4)cc3)CC2)n1 [Example 74, N-cyclopentyl-4-(1-{[(6-ethylpyrin-2-yl)amino]sulfonyl}pipendin-4-yl)benzamide]
31 | – | 230 | – | 86.8 | CCc1cccc(NS(=O)(=O)N2CCC(c3ccnc(N(C)C)n3)CC2)n1 [Example 81, 4-[2-(dimethylamino)pyrimi-din-4-yl]-N-(6-ethylpyridin-2-yl)piperidine-1-sulfonamide]
32 | – | 8.2 | – | 100 | Cc1cccc(NS(=O)(=O)N2CCCC(c3ccccc3)CC2)n1 (centres unmarked) [Example 84, N-(6-methylpyridin-2-yl)-4-phenylazepane-1-sulfonamide]
33 | – | 98 | – | 87.6 | Cc1cccc(NS(=O)(=O)N2CCCC(COCC3CC3)CC2)n1 (centres unmarked) [Example 86, 4-[(cyclopropylmethoxy)-methyl]-N-(6-methylpyridin-2-yl)azepane-1-sulfonamide]
34 | – | 25 | – | 85.2 | Cc1ccc(C2(C)CN(S(=O)(=O)Nc3ccc4ccccc4n3)CCO2)cc1 (centres unmarked) [Example 87, 2-methyl-2-(4-methylphenyl)-N-quinolin-2-ylmorpholine-4-sulfonamide]
